Laboratory results as given in patent US20220281848A1, “PYRAZOLE-SUBSTITUTED PYRROLIDINONES AS HERBICIDES” (FMC Corporation, priority 2019, published 2022).

Test system: plants
Experiment: Test D pre-emergence, other plants of Tables D1 and D3
Type: in vivo
Conditions: for ABUTH damage to plant (100=total damage; 0=no damage) / AMARE damage to plant (100=total damage; 0=no damage) / DIGSA damage to plant (100=total damage; 0=no damage) / ECHCG damage to plant (100=total damage; 0=no damage) / ORYSA damage to plant (100=total damage; 0=no damage) / PANMI damage to plant (100=total damage; 0=no damage) / SETFA damage to plant (100=total damage; 0=no damage): preemergent
Procedure, shortened: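 Damage was rated visually from 0 (none) to 100 (total), at 20 DAA for pre-emergence and 15 d for post-emergence. Plants grew from safener-treated seed in a glasshouse at 24/18° C. or 20/16° C. day/night, 65% humidity, watered twice daily.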

[1] = pre-emergence, rate 15, 20 DAA, 100=total damage, 0=no damage
[2] = pre-emergence, rate 30, 20 DAA, 100=total damage, 0=no damage
[3] = pre-emergence, rate 60, 20 DAA, 100=total damage, 0=no damage
[4] = pre-emergence, rate 130, 20 DAA, 100=total damage, 0=no damage
[5] = pre-emergence, rate 250, 20 DAA, 100=total damage, 0=no damage
[6] = pre-emergence, rate 500, 20 DAA, 100=total damage, 0=no damage

CN1CC(c2cc(C(F)(F)F)n(C)n2)C(C(=O)Nc2ccc(F)cc2C(C)(F)F)C1=O (racemic) [Compound 26]
VERPE damage rating (VERPE, Rates 500, pre-emergence, 20 DAA, 100=total damage, 0=no damage): 80 | damage to plant, ALOMY [1]: 0 | damage to plant, AVEFA [1]: 0 | damage to plant, BEAVA [1]: 0 | damage to plant, BROTE [1]: 0 | damage to plant, BRSNN [1]: 0 | damage to plant, HORVW [1]: 0 | damage to plant, SINAR [1]: 0 | damage to plant, ALOMY [2]: 0 | damage to plant, AVEFA [2]: 0 | damage to plant, BEAVA [2]: 0 | damage to plant, BROTE [2]: 0 | damage to plant, BRSNN [2]: 0 | damage to plant, HORVW [2]: 0 | damage to plant, SINAR [2]: 0 | damage to plant, ALOMY [3]: 0 | damage to plant, AVEFA [3]: 0 | damage to plant, BEAVA [3]: 0 | damage to plant, BROTE [3]: 0 | damage to plant, BRSNN [3]: 0 | damage to plant, HORVW [3]: 0 | damage to plant, SINAR [3]: 0 | damage to plant, ALOMY [4]: 10 | damage to plant, AVEFA [4]: 10 | damage to plant, BEAVA [4]: 0 | damage to plant, BROTE [4]: 0 | damage to plant, BRSNN [4]: 0 | damage to plant, HORVW [4]: 10 | damage to plant, SINAR [4]: 0 | damage to plant, ALOMY [5]: 70 | damage to plant, AVEFA [5]: 50 | damage to plant, BEAVA [5]: 0 | damage to plant, BRSNN [5]: 0 | damage to plant, HORVW [5]: 40 | damage to plant, SINAR [5]: 0 | damage to plant, ALOMY [6]: 70 | damage to plant, AVEFA [6]: 90 | damage to plant, BEAVA [6]: 0 | damage to plant, BROTE [6]: 10 | damage to plant, BRSNN [6]: 10 | damage to plant, HORVW [6]: 30 | damage to plant, SINAR [6]: 0 | ABUTH damage to plant (100=total damage; 0=no damage) (Rates 15, 20 DAA): 0 | AMARE damage to plant (100=total damage; 0=no damage) (Rates 15, 20 DAA): 0 | DIGSA damage to plant (100=total damage; 0=no damage) (Rates 15, 20 DAA): 20 | ECHCG damage to plant (100=total damage; 0=no damage) (Rates 15, 20 DAA): 0 | ORYSA damage to plant (100=total damage; 0=no damage) (Rates 15, 20 DAA): 0 | PANMI damage to plant (100=total damage; 0=no damage) (Rates 15, 20 DAA): 0 | SETFA damage to plant (100=total damage; 0=no damage) (Rates 15, 20 DAA): 0 | ABUTH damage to plant (100=total damage; 0=no damage) (Rates 30, 20 DAA): 0 | AMARE damage to plant (100=total damage; 0=no damage) (Rates 30, 20 DAA): 0 | DIGSA damage to plant (100=total damage; 0=no damage) (Rates 30, 20 DAA): 90 | ECHCG damage to plant (100=total damage; 0=no damage) (Rates 30, 20 DAA): 10 | ORYSA damage to plant (100=total damage; 0=no damage) (Rates 30, 20 DAA): 0 | PANMI damage to plant (100=total damage; 0=no damage) (Rates 30, 20 DAA): 0 | SETFA damage to plant (100=total damage; 0=no damage) (Rates 30, 20 DAA): 20 | ABUTH damage to plant (100=total damage; 0=no damage) (Rates 60, 20 DAA): 0 | AMARE damage to plant (100=total damage; 0=no damage) (Rates 60, 20 DAA): 0 | DIGSA damage to plant (100=total damage; 0=no damage) (Rates 60, 20 DAA): 90 | ECHCG damage to plant (100=total damage; 0=no damage) (Rates 60, 20 DAA): 30 | ORYSA damage to plant (100=total damage; 0=no damage) (Rates 60, 20 DAA): 0 | PANMI damage to plant (100=total damage; 0=no damage) (Rates 60, 20 DAA): 0 | SETFA damage to plant (100=total damage; 0=no damage) (Rates 60, 20 DAA): 70 | ABUTH damage to plant (100=total damage; 0=no damage) (Rates 130, 20 DAA): 0 | AMARE damage to plant (100=total damage; 0=no damage) (Rates 130, 20 DAA): 0 | DIGSA damage to plant (100=total damage; 0=no damage) (Rates 130, 20 DAA): 90 | ECHCG damage to plant (100=total damage; 0=no damage) (Rates 130, 20 DAA): 20 | ORYSA damage to plant (100=total damage; 0=no damage) (Rates 130, 20 DAA): 0 | PANMI damage to plant (100=total damage; 0=no damage) (Rates 130, 20 DAA): 0 | SETFA damage to plant (100=total damage; 0=no damage) (Rates 130, 20 DAA): 90 | ABUTH damage to plant (100=total damage; 0=no damage) (Rates 250, 20 DAA): 0 | AMARE damage to plant (100=total damage; 0=no damage) (Rates 250, 20 DAA): 70 | DIGSA damage to plant (100=total damage; 0=no damage) (Rates 250, 20 DAA): 90 | ECHCG damage to plant (100=total damage; 0=no damage) (Rates 250, 20 DAA): 60 | ORYSA damage to plant (100=total damage; 0=no damage) (Rates 250, 20 DAA): 0 | PANMI damage to plant (100=total damage; 0=no damage) (Rates 250, 20 DAA): 0 | SETFA damage to plant (100=total damage; 0=no damage) (Rates 250, 20 DAA): 90 | ABUTH damage to plant (100=total damage; 0=no damage) (Rates 500, 20 DAA): 0 | AMARE damage to plant (100=total damage; 0=no damage) (Rates 500, 20 DAA): 60 | DIGSA damage to plant (100=total damage; 0=no damage) (Rates 500, 20 DAA): 90 | ECHCG damage to plant (100=total damage; 0=no damage) (Rates 500, 20 DAA): 90 | ORYSA damage to plant (100=total damage; 0=no damage) (Rates 500, 20 DAA): 0 | PANMI damage to plant (100=total damage; 0=no damage) (Rates 500, 20 DAA): 0 | SETFA damage to plant (100=total damage; 0=no damage) (Rates 500, 20 DAA): 90
